From patent US9211305B2, “Pharmaceutical compositions with glycosaminoglycans and use thereof in the treatment of chronic ulcers” (LABORATORIOS FARMACEUTICOS ROVI S.A., priority 2008, dated 2015)
Several values for one entry are separate records, joined by “and”; a condition that tells them apart may be missing. Equal entries are not always repeated. Entries after “also recorded” stand apart in the source; their conditions may differ.

Assays:
diabetic wistar rat [1] = assay: Example 3: percentage of ulcer healing in diabetic rats, SC route; type: in vivo; conditions: 0.22 mg/rat SC, one rat
Procedure: To perform the present embodiment, doses of 45 mg/kg of streptozocin (STZ) were administered by intramuscular route to make a batch of 10 rats diabetic (Andrades Ja et al. Engineering, expression, and renaturation of a collagen-targeted human bFGF fusion protein. Growth Factors. 2001; 18(4):261-75).
(§1) Male wistar rats with an average weight of 250 g per rat were used, to which a dose of 11.25 mg STZ per rat was administered by means of the intramuscular administration of 100 μL in the left paw of each rat.
(§2) Diabetes was induced in 6 of all the rats and 4 of them were left as a non-diabetic control, to test the result of the healing of chronic ulcers not caused by diabetes.
(§3) Sweetened water (350 mg/dL) was administered to the rats for three days and glucose measurements were performed with a glucometer every day to verify that the rats were indeed diabetized. For this reason, before the administration and at time 4 days after the administration of streptozocin, a drop of blood was extracted from the rat tail vein for the subsequent quantification of glycemia and see whether they were diabetic before starting the ulceration assay.
Once the rats are ready, 2 ulcers with a diameter of 1 cm each were made on them using a scalpel. […]

[2] = test system: C57BL/KsJ-db/db diabetic mouse; assay: Example 4: wound healing in genetically diabetic mouse, subcutaneous route; type: in vivo; conditions: for histopathological Grade / histopathological Score: sacrifice day 21, doses as in the 18th table
Procedure: The genetically diabetic mouse develops resistance to insulin and hyperglycemia similar to those observed in adult diabetes. The total thickness wounds made in the back of these animals takes longer in forming the granulation tissue and in closing than the same wounds caused in non-diabetic animals.
(§4) On the first day of the assay, the animals were anesthetized (ketamine+xylazine, 100+10 mg/kg, i.m.). The back of the animal was shaved, the area was cleaned with disinfectant and the location of the wound was marked by means of a template to make its position the same in all the animals.
(§5) The wound was made by means of a circular incision with a diameter of approximately 1.5 cm, the skin of the mid-dorsal area being removed. A semipermeable dressing was subsequently placed on the wound. 1 mL/animal of physiological serum was administered by i.p. route after the intervention.
(§6) The wound area was calculated as the percentage of reduction thereof to evaluate the degree of curing thereof, by means of the standardized formula: […]
(§7) The measurement performed immediately after the intervention or incision was used as the baseline area. On the following day and for a total of 14 days, the assigned treatments were administered to the animals.
On the following day and for a total of 14 days, 10 mL/kg were administered to the animals by subcutaneous route in the back of the animal, avoiding the area of the wound.
The follow-up of the animals was performed up to a period of 21 days (average time necessary for the healing of the wounds in this animal model). The assessment was performed by means of digital photography of the wound and subsequent image analysis.
(§8) The animals were sacrificed on day 21 of the study and the area of the skin where the wound was caused was stored in formol to perform a histopathological evaluation (hematoxylin-eosin staining).
(§9) Each section was given a histological score in the grade 1 to grade V range, where I means uncured wound and V means completely epithelialized wound. The score is based on the degree of cell invasion, the formation of granulation tissue, vascularization and epithelialization.

[3] = in vivo; cited from earlier work
[4] = test system: C57BL/KS.Cg-m Lepr^db+/+m mouse; assay: Example 5: wound healing in non-diabetic mouse, subcutaneous route; type: in vivo
Procedure: The C57BL/KS.Cg-m Lepr^db+/+m mouse is the non-diabetic analog of the mouse used in the previous example.
as §4, §5, §6, §7
On the following day and for a total of 14 days, 10 ml/kg were administered to the animals by subcutaneous route in the back of the animal, avoiding the area of the wound.
The follow-up of the animals was performed up to a period of 21 days. The assessment was performed by means of digital photography of the wound and subsequent image analysis.
as §8, §9

factor Xa = assay: Anti-factor Xa activity; type: biochemical
non-diabetic rats = assay: Example 3: percentage of ulcer healing in non-diabetic rats, SC route; type: in vivo, Wistar rat; conditions: for percentage of healing of day 9 with respect to day 1, Average: Group 1, non-diabetic, 217 IU/rat SC
Procedure: as §2
Once the rats are ready, 2 ulcers with a diameter of 1 cm each were made on them using a scalpel. An anesthesia/analgesia protocol with ketamine/xylazine was followed according to the recommendations of the book: “Handbook of laboratory animal management and welfare”:
The ulcers were treated with water and cleaned for 9 days after the ulceration. A corresponding solution was administered to each group by SC route (100 μL) for the treatment of the ulcers. The diameter of the ulcer was quantified by means of tracing the ulcer onto a transparency to see the progress of the healing.

diabetic wistar rat [5] = assay: Example 1: ulcer area reduction in streptozocin-diabetized rats, subcutaneous route; type: in vivo
Procedure: To perform the present example, doses of 45 mg/kg of streptozocin (STZ) were administered by intramuscular route to make a batch of 8 rats diabetic (Andrades Ja et al. Engineering, expression, and renaturation of a collagen-targeted human bFGF fusion protein. Growth Factors. 2001; 18(4):261-75).
as §1
as §3, with “administered to all the rats” for “administered to the rats”, “glycemia and to see whether” for “glycemia and see whether”
Once the rats were diabetized, 4 ulcers with a diameter of 1 cm each were made on them using a scalpel. An anesthesia/analgesia protocol with Ketamine/xylazine was followed according to the recommendations of the book: “Handbook of laboratory animal management and welfare”:
The ulcers were treated with water and cleaned for 9 days after the ulceration.
The administrations of bemiparin were performed by means of a bemiparin solution by subcutaneous route (100 μL) for the treatment of the ulcers.
The diameter of the ulcer was quantified by means of tracing the ulcer onto a transparency to see the progress of the healing.

[6] = day 21, subcutaneous 14 days, fondaparinux 1 mg/kg, bemiparin 1000 IU Xa/kg
[7] = subcutaneous 14 days, sacrifice day 21, doses as in the 23rd table

## CO[C@H]1O[C@H](COS(=O)(=O)O)[C@@H](O[C@@H]2O[C@@H](C(=O)O)[C@@H](O[C@H]3O[C@H](COS(=O)(=O)O)[C@@H](O[C@@H]4O[C@H](C(=O)O)[C@@H](O[C@H]5O[C@H](COS(=O)(=O)O)[C@@H](O)[C@H](O)[C@H]5NS(=O)(=O)O)[C@H](O)[C@H]4O)[C@H](OS(=O)(=O)O)[C@H]3NS(=O)(=O)O)[C@H](O)[C@H]2OS(=O)(=O)O)[C@H](O)[C@H]1NS(=O)(=O)O [Fondaparinux]
Diabetic wistar rat [1]
  percentage of healing of day 9 with respect to day 1, Average: 50.22%
Diabetic wistar rat [1]; single ulcers
  percentage of healing of day 9 with respect to day 1: A 50.99%; also recorded: B 49.55%
[2]; [6]
  percentage of healing of the wound: 96%
[2]; subcutaneous 14 days
  histopathological Grade: III (7-9 Moderately thick granulation tissue. It can vary from being dominated by inflammatory cells to greater presence of fibroblasts and collagen deposition, extensive neovascularization, minimum to moderate epithelial migration.)
  histopathological Score: 7.2

## Bemiparin
[3]
  Plasma Half-Life: 5.3 h
  Plasma Half-Life Range: 5.2 to 5.4 h
[4]; subcutaneous 1000 IU Xa/kg
  healing rate with respect to the control: does not improve the healing rate
[4]; [7]
  histopathological Grade: III (7-9 Moderately thick granulation tissue. It can vary from being dominated by inflammatory cells to greater presence of fibroblasts and collagen deposition, extensive neovascularization, minimum to moderate epithelial migration.)
  histopathological Score: 8
Factor Xa
  anti-Xa/anti-IIa ratio: greater than 8
non-diabetic rats; Group 1 (217 IU/rat) compared with the rest of groups
  macroscopic healing process: macroscopically much better
non-diabetic rats
  percentage of healing of day 9 with respect to day 1, Average: 71.82%
non-diabetic rats; listed as bemiparin
  percentage of healing of day 9 with respect to day 1, Average: 71.82%
[2]; [6]
  percentage of healing of the wound: complete curing
[2]; from day 18, subcutaneous 1000 IU Xa/kg
  percentage of healing of the wound: 98%
[2]; subcutaneous 1000 IU Xa/kg
  day on which the wound closes: 18 days
[2]; subcutaneous 14 days
  histopathological Grade: IV (10-12 Thick and vascular granulation tissue dominated by fibroblasts and extensive collagen deposition, the epithelium covers the wound partially or completely.)
  histopathological Score: 11.5
[2]; subcutaneous, after the fifth day of treatment
  granulation tissue in the wound, macroscopic: a bed covered with granulation tissue
Diabetic wistar rat [5]; 108 IU rat, subcutaneous, ulcer E excluded
  percentage of area reduction of day 9 with respect to day 1, Average: 24.39 ± 7.47%
Diabetic wistar rat [5]; 217 IU rat compared with 108 IU rat
  macroscopic healing process: macroscopically much better
Diabetic wistar rat [5]; 217 IU rat, subcutaneous
  percentage of area reduction of day 9 with respect to day 1, Average: 27.35 ± 7.25%
Diabetic wistar rat [5]; single ulcers, 217 IU rat, subcutaneous
  percentage of area reduction of day 9 with respect to day 1: 26.2% and 20.14% and 25.64% and 37.43%
